Measured values reported in patent US7410975B2, “Small molecule toll-like receptor (TLR) antagonists” (Coley Pharmaceutical Group, Inc., priority 2003, dated 2008).
Counter-ions that a name gives are not always drawn.

Each molecule was assayed against T1, human TLR8 (hTLR8) (Homo sapiens, UniProt Q9NR97) (assay: Antagonist screen, hTLR8-NFκB-293 cells, NF-κB-luciferase reporter, with EC50 of R848). Settings: compound at 0.5, 5, 50 μg/ml; EC50 concentration of R848; 16 h; NF-κB-luciferase.
T1 construct: expressed in transfected cells
T1 sequence (Q9NR97 27-1041): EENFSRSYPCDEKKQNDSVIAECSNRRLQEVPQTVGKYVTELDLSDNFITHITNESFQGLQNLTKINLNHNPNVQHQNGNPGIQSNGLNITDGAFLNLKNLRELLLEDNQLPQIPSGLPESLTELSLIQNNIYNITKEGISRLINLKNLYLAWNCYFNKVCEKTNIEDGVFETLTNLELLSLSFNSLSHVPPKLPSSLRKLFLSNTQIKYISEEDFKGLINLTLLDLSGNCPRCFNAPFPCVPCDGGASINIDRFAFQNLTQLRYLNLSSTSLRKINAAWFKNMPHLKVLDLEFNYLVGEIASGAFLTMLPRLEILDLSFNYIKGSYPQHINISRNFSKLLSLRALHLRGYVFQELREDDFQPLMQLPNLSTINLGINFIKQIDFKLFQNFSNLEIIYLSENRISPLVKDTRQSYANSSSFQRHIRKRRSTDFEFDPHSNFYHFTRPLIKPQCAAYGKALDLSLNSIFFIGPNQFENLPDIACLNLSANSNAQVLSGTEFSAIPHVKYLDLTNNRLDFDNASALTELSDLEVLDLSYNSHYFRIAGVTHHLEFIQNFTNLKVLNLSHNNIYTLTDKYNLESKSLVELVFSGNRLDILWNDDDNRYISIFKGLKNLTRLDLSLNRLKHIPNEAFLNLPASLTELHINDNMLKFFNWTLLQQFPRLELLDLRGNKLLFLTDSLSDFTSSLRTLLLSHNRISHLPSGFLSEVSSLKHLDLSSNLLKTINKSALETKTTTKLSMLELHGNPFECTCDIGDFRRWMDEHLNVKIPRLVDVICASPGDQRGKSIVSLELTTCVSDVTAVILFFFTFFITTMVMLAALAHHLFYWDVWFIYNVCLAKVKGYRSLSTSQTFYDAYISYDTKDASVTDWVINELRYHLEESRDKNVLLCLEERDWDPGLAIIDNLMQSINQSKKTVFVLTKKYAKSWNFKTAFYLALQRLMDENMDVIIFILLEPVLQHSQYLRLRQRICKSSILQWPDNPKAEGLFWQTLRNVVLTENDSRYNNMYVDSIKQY
Type: cell-based

Structure (SMILES) | hTLR8 (inhibitory effect, antagonist score)
CN1CCc2cccc3c2[C@H]1Cc1ccc(O)c(O)c1-3.Cl [compound 101, Apomorphinehydrochloride (R, —)] | 11 (compounds for which there was clear down regulation only at 50 μg/ml)
CN1CCc2cc3c(c4c2C1Cc1ccccc1-4)OCO3.Cl (stereo not drawn) [compound 669, Remerine hydrochloride] | — (compounds for which there was no clear down regulation even at 50 μg/ml)
COc1cc2nc(N3CCN(C(=O)C4CCCO4)CC3)nc(N)c2cc1OC.Cl (stereo not drawn) [compound 751, Terazosin hydrochloride] | — (compounds for which there was no clear down regulation even at 50 μg/ml)
CN(C)C(=O)C(CCN1CCC(O)(c2ccc(Cl)cc2)CC1)(c1ccccc1)c1ccccc1 [compound 144, Loperamidehydrochloride] | 11 (compounds for which there was clear down regulation only at 50 μg/ml)
COc1cc2nc(N3CCN(C(=O)C4COc5ccccc5O4)CC3)nc(N)c2cc1OC.CS(=O)(=O)O (stereo not drawn) [compound 858, Doxazosin mesylate] | — (compounds for which there was no clear down regulation even at 50 μg/ml)
COc1cc2c(cc1O)C[C@H]1c3c(cc(O)c(OC)c3-2)CCN1C [compound 600, Boldine] | — (compounds for which there was no clear down regulation even at 50 μg/ml)
CC(C)(C)c1ccc(C(O)CCCN2CCC(C(O)(c3ccccc3)c3ccccc3)CC2)cc1 (stereo not drawn) [compound 138, Terfenadine] | 11 (compounds for which there was clear down regulation only at 50 μg/ml)
CCN(CC)CCCC(C)Nc1nc(/C=C/c2ccc(Cl)cc2)nc2cc3ccccc3cc12 (stereo not drawn) [compound 2000] | 11 (compounds for which there was clear down regulation only at 50 μg/ml)

Same assay, conditions: hTLR8-NFκB-293 cells, with EC50 of R848; compound at 0.5, 5 and 50 μg/ml

Structure (SMILES) | hTLR8 (inhibitory effect)
CN1CCc2c1nc1ccccc1c2NC(=O)CN1CCN(c2ccccc2)CC1 [compound 1212] | — (compounds for which there was no clear down regulation even at 50 μg/ml)
COc1ccc(Cc2nccc3cc(OC)c(OC)cc23)cc1OC.Cl [compound 583, Papaverinehydrochloride] | — (compounds for which there was no clear down regulation even at 50 μg/ml)
O=C1c2ccc(Oc3ccc(S(=O)(=O)c4ccc(Oc5ccc6c(c5)C(=O)N(c5ccccn5)C6=O)cc4)cc3)cc2C(=O)N1c1ccccn1 [compound 1367] | 11 (compounds for which there was clear down regulation only at 50 μg/ml)
COc1cc2cc3c4cc(OC)c(OC)cc4cc[n+]3c(C)c2cc1OC [compound 431, Coralyne chloridehydrate] | — (compounds for which there was no clear down regulation even at 50 μg/ml)
CN1CCc2c1nc1ccc(Br)cc1c2N [compound 1142, 6-Bromo-1-methyl-2,3-dihydro-1H-pyrrolo[2,3-b]quinolin-4-ylamine] | 11 (compounds for which there was clear down regulation only at 50 μg/ml)
O=c1c2c(nc(NCCO)n1-c1ccccc1)-c1ccccc1CC21CCCC1 [compound 891] | — (compounds for which there was no clear down regulation even at 50 μg/ml)
O=c1c2c(nc(NCCO)n1Cc1ccccc1)-c1ccccc1CC21CCCC1 [compound 926] | 11 (compounds for which there was clear down regulation only at 50 μg/ml)
COc1ccc2cc3[n+](cc2c1OC)CCc1cc2c(cc1-3)OCO2.[Cl-] [compound 586, Berberine chloride] | 12 (compounds for which there was clear down regulation at 5 μg/ml and 50 μg/ml)
O=C1c2ccc(S(=O)(=O)c3ccc4c(c3)C(=O)N(c3ccccn3)C4=O)cc2C(=O)N1c1ccccn1 [compound 1163] | 11 (compounds for which there was clear down regulation only at 50 μg/ml)
Cc1ccc2nc3c(c(N)c2c1)CCN3C [compound 1091, 1,6-Dimethyl-2,3-dihydro-1H-pyrrolo[2,3-b]quinolin-4-ylamine] | 11 (compounds for which there was clear down regulation only at 50 μg/ml)
CN(C)CCN(Cc1ccc(Cl)cc1)c1ccccn1.Cl [compound 807, Chloro-pyraminehydrochloride] | — (compounds for which there was no clear down regulation even at 50 μg/ml)
CN1CCc2c1nc1ccccc1c2NC(=O)CN1CCCCCC1 [compound 1003] | — (compounds for which there was no clear down regulation even at 50 μg/ml)
NNc1nc2c(c(=O)n1C1CCCC1)C1(CCCC1)Cc1ccccc1-2 [compound 1248] | 11 (compounds for which there was clear down regulation only at 50 μg/ml)
CN1CCc2c1nc1ccccc1c2N [compound 990, 1-Methyl-2,3-dihydro-1H-pyrrolo[2,3-b]quinolin-4-ylamine] | — (compounds for which there was no clear down regulation even at 50 μg/ml)
CCCCCCCCCCCC(=O)Nc1c2c(nc3ccccc13)N(C)CC2 [compound 1334] | — (compounds for which there was no clear down regulation even at 50 μg/ml)
O=c1[nH]c(NCCO)nc2c1C1(CCCC1)Cc1ccccc1-2 [compound 1322] | — (compounds for which there was no clear down regulation even at 50 μg/ml)
Cc1ccc(-n2c(NCCO)nc3c(c2=O)C2(CCCCC2)Cc2ccccc2-3)cc1 [compound 1137] | 11 (compounds for which there was clear down regulation only at 50 μg/ml)
NNc1nc2c(c(=O)n1-c1ccccc1)C1(CCCC1)Cc1ccccc1-2 [compound 1320] | — (compounds for which there was no clear down regulation even at 50 μg/ml)
Nc1c2c(nc3ccccc13)N(Cc1ccccc1)CC2 [compound 1217, 1-Benzyl-2,3-dihydro-1H-pyrrolo[2,3-b]quinolin-4-ylamine] | 11 (compounds for which there was clear down regulation only at 50 μg/ml)
O=C(CN1CCCC1)Nc1c2c(nc3ccccc13)N(c1ccccc1)CC2 [compound 1244] | 11 (compounds for which there was clear down regulation only at 50 μg/ml)
CC[N+](C)(CC)CCC[n+]1c(-c2ccccc2)c2cc(N)ccc2c2ccc(N)cc21.[I-].[I-] [compound 792, Propidium iodide] | — (compounds for which there was no clear down regulation even at 50 μg/ml)
CCCCCCN(CCCCCC)CC(=O)Nc1c2c(nc3ccccc13)N(C)CC2 [compound 1224] | 12 (compounds for which there was clear down regulation at 5 μg/ml and 50 μg/ml)
CN1CCCCc2c1nc1ccccc1c2N [compound 1185, 1-Methyl-2,3,4,5-tetrahydro-1H-azepino[2,3-b]quinolin-6-ylamine] | — (compounds for which there was no clear down regulation even at 50 μg/ml)
Cn1c(NN)nc2c(c1=O)C1(CCCC1)Cc1ccccc1-2 [compound 1213] | — (compounds for which there was no clear down regulation even at 50 μg/ml)
CCOc1ccc(Cc2nccc3cc(OCC)c(OCC)cc23)cc1OCC.Cl [compound 830, Ethaverinehydrochloride] | 11 (compounds for which there was clear down regulation only at 50 μg/ml)
